Columns and labels:
Assay in all cases: cells
Settings in all cases: Homo sapiens
SK-MEL-30 = assay type: functional, cell-based;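 also: growth inhibition of SK-MEL-30 cells, determined with a cell viability assay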
Description: SANGER: Inhibition of human SK-MEL-30 cell growth in a cell viability assay.

HT55 = assay type: functional, cell-based;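 also: cell viability readout measuring growth inhibition of human HT55 cells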
Description: SANGER: Inhibition of human HT55 cell growth in a cell viability assay.

MEL-JUSO = assay type: functional, cell-based;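 also: growth inhibition of human MEL-JUSO cells, read out with a cell viability assay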
Description: SANGER: Inhibition of human MEL-JUSO cell growth in a cell viability assay.

HCC1419 = assay type: functional, cell-based;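 also: growth inhibition of human HCC1419 cells, read out as cell viability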
Description: SANGER: Inhibition of human HCC1419 cell growth in a cell viability assay.

SW-620 = assay type: functional, cell-based;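 also: growth inhibition of human SW-620 cells, measured by a cell viability assay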
Description: SANGER: Inhibition of human SW620 cell growth in a cell viability assay.

RD = assay type: functional, cell-based
Description: SANGER: Inhibition of human RD cell growth in a cell viability assay.

NCI-H2405 = assay type: functional, cell-based;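 also: growth inhibition of the human cell line, read out with a cell viability assay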
Description: SANGER: Inhibition of human NCI-H2405 cell growth in a cell viability assay.

CAL-62 = assay type: functional, cell-based;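 also: growth inhibition of CAL-62 cells, read out with a cell viability assay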
Description: SANGER: Inhibition of human CAL-62 cell growth in a cell viability assay.

J82 = assay type: functional, cell-based;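 also: growth inhibition of J82 cells, read out with a cell viability assay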
Description: SANGER: Inhibition of human J82 cell growth in a cell viability assay.

ME-180 = assay type: functional, cell-based;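 also: cell viability assay measuring growth inhibition of ME-180 cells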
Description: SANGER: Inhibition of human ME-180 cell growth in a cell viability assay.

DOK = assay type: functional, cell-based;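 also: cell viability assay read-out, values reflect inhibition of cell growth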
Description: SANGER: Inhibition of human DOK cell growth in a cell viability assay.

NCI-H1792 = assay type: functional, cell-based;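 also: growth inhibition of human NCI-H1792 cells, read out as cell viability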
Description: SANGER: Inhibition of human NCI-H1792 cell growth in a cell viability assay.

NCI-H596 = assay type: functional, cell-based;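 also: growth inhibition of NCI-H596 cells, read out with a cell viability assay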
Description: SANGER: Inhibition of human NCI-H596 cell growth in a cell viability assay.

NCI-H2291 = assay type: functional, cell-based
Description: SANGER: Inhibition of human NCI-H2291 cell growth in a cell viability assay.

BT-549 = assay type: functional, cell-based
Description: SANGER: Inhibition of human BT-549 cell growth in a cell viability assay.

RT-112 = assay type: functional, cell-based
Description: SANGER: Inhibition of human RT-112 cell growth in a cell viability assay.

KOSC-2 = assay type: functional, cell-based;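 also: growth inhibition of KOSC-2 cells, read out by a cell viability assay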
Description: SANGER: Inhibition of human KOSC-2 cell growth in a cell viability assay.

CAKI-1 = assay type: functional, cell-based;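 also: growth inhibition of CAKI-1 cells, measured by a cell viability assay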
Description: SANGER: Inhibition of human CAKI-1 cell growth in a cell viability assay.

G-401 = assay type: functional, cell-based
Description: SANGER: Inhibition of human G-401 cell growth in a cell viability assay.

NCI-H2030 = assay type: functional, cell-based;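 also: growth inhibition of human NCI-H2030 cells, read out by a cell viability assay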
Description: SANGER: Inhibition of human NCI-H2030 cell growth in a cell viability assay.

NCI-H1755 = assay type: functional, cell-based;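 also: cell viability readout used to measure growth inhibition of NCI-H1755 cells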
Description: SANGER: Inhibition of human NCI-H1755 cell growth in a cell viability assay.

SK-HEP1 = assay type: functional, cell-based, SK-HEP-1;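 also: cell viability readout used to quantify reduction in proliferation of human SK-HEP-1 cells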
Description: SANGER: Inhibition of human SK-HEP-1 cell growth in a cell viability assay.

HT-29 = assay type: functional, cell-based;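 also: growth inhibition of human HT-29 cells, read out by a cell viability assay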
Description: SANGER: Inhibition of human HT-29 cell growth in a cell viability assay.

HuCCT-1 = assay type: functional, cell-based, HuCCT1;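 also: growth inhibition of HuCCT-1 cells, read out by a cell viability assay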
Description: SANGER: Inhibition of human HuCCT1 cell growth in a cell viability assay.

C-33-A = assay type: functional, cell-based;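 also: cell viability assay measuring growth inhibition of C-33-A cells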
Description: SANGER: Inhibition of human C-33-A cell growth in a cell viability assay.

MIA PaCa-2 = assay type: functional, cell-based;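 also: growth inhibition of MIA PaCa-2 cells, read out with a cell viability assay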
Description: SANGER: Inhibition of human MIA-PaCa-2 cell growth in a cell viability assay.

SW1573 = assay type: functional, cell-based;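 also: growth inhibition of SW1573 cells, read out with a cell viability assay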
Description: SANGER: Inhibition of human SW1573 cell growth in a cell viability assay.

SNU-387 = assay type: functional, cell-based
Description: SANGER: Inhibition of human SNU-387 cell growth in a cell viability assay.

SNU-423 = assay type: functional, cell-based
Description: SANGER: Inhibition of human SNU-423 cell growth in a cell viability assay.

NCI-H650 = assay type: functional, cell-based;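 also: growth inhibition of NCI-H650 cells, read out by a viability assay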
Description: SANGER: Inhibition of human NCI-H650 cell growth in a cell viability assay.

LU-135 = assay type: functional, cell-based
Description: SANGER: Inhibition of human LU-135 cell growth in a cell viability assay.

C3A = assay type: functional, cell-based;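 also: growth inhibition of C3A human cells, quantified with a cell viability readout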
Description: SANGER: Inhibition of human C3A cell growth in a cell viability assay.

MDA-MB-415 = assay type: functional, cell-based
A 172 = assay type: functional, cell-based;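 also: growth inhibition of A172 cells, measured with a cell viability readout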
Description: SANGER: Inhibition of human A172 cell growth in a cell viability assay.

HOP-92 = assay type: functional, cell-based;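 also: cell viability readout, with IC50 reflecting inhibition of HOP-92 cell growth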
Description: SANGER: Inhibition of human HOP-92 cell growth in a cell viability assay.

HTC-C3 = assay type: functional, cell-based;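 also: inhibition of cell growth, read out with a cell viability assay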
Description: SANGER: Inhibition of human HTC-C3 cell growth in a cell viability assay.

SW1088 = assay type: functional, cell-based;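 also: growth inhibition of human SW1088 cells, read out by a cell viability assay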
Description: SANGER: Inhibition of human SW1088 cell growth in a cell viability assay.

CAL-54 = assay type: functional, cell-based;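 also: growth inhibition of CAL-54 cells, read out by a viability measurement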
Description: SANGER: Inhibition of human CAL-54 cell growth in a cell viability assay.

SW1417 = assay type: functional, cell-based;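 also: growth inhibition of human SW1417 cells, read out with a cell viability assay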
Description: SANGER: Inhibition of human SW1417 cell growth in a cell viability assay.

GMS-10 = assay type: functional, cell-based;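 also: growth inhibition of GMS-10 cells, read out as cell viability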
Description: SANGER: Inhibition of human GMS-10 cell growth in a cell viability assay.

IGR-1 = assay type: functional, cell-based;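 also: growth inhibition of human IGR-1 cells, read out with a cell viability assay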
Description: SANGER: Inhibition of human IGR-1 cell growth in a cell viability assay.

DU-145 = assay type: functional, cell-based
Description: SANGER: Inhibition of human DU-145 cell growth in a cell viability assay.

TCC-SUP = assay type: functional, cell-based;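 also: growth inhibition of TCC-SUP cells, read out with a cell viability assay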
Description: SANGER: Inhibition of human TCCSUP cell growth in a cell viability assay.

HN = assay type: functional, cell-based
Description: SANGER: Inhibition of human HN cell growth in a cell viability assay.

CAL-33 = assay type: functional, cell-based;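 also: growth inhibition of CAL-33 cells, read out with a cell viability assay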
Description: SANGER: Inhibition of human CAL-33 cell growth in a cell viability assay.

HCC2157 = assay type: functional, cell-based;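 also: growth inhibition of the cancer cell line, read out as cell viability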
Description: SANGER: Inhibition of human HCC2157 cell growth in a cell viability assay.

`NC(=O)c1ncn([C@@H]2O[C@H](COP(=O)(O)O)[C@@H](O)[C@H]2O)c1N` gave an IC50 (SK-MEL-30) greater than 2000 µM, an IC50 (HT55) greater than 2000 µM and an IC50 (MEL-JUSO) greater than 2000 µM. For the same compound, the IC50 (HCC1419) was greater than 2000 µM, the IC50 (SW-620) was greater than 2000 µM and the IC50 (RD) was greater than 2000 µM. For the same compound, the IC50 (NCI-H2405) was greater than 2000 µM, the IC50 (CAL-62) was greater than 2000 µM and the IC50 (J82) was greater than 2000 µM. It also gave an IC50 (ME-180) of 416000 nM, an IC50 (DOK) of 657000 nM and an IC50 (NCI-H1792) of 1590 µM. It also gave an IC50 (NCI-H596) greater than 2000 µM, an IC50 (NCI-H2291) greater than 2000 µM and an IC50 (BT-549) of 807000 nM. The IC50 (RT-112) was 1870 µM, the IC50 (KOSC-2) was 526000 nM and the IC50 (CAKI-1) was greater than 2000 µM. It also gave an IC50 (G-401) greater than 2000 µM, an IC50 (NCI-H2030) of 1510 µM and an IC50 (NCI-H1755) of 1840 µM. It also gave an IC50 (SK-HEP1) of 920000 nM, an IC50 (HT-29) greater than 2000 µM and an IC50 (HuCCT-1) of 1080 µM. For the same compound, the IC50 (C-33-A) was greater than 2000 µM, the IC50 (MIA PaCa-2) was greater than 2000 µM and the IC50 (SW1573) was greater than 2000 µM. The IC50 (SNU-387) was greater than 2000 µM, the IC50 (SNU-423) was 1220 µM and the IC50 (NCI-H650) was greater than 2000 µM. For the same compound, the IC50 (LU-135) was greater than 2000 µM, the IC50 (C3A) was greater than 2000 µM and the IC50 (MDA-MB-415) was 655 µM. It also gave an IC50 (A 172) greater than 2000 µM, an IC50 (HOP-92) of 1690 µM and an IC50 (HTC-C3) of 252000 nM. It also gave an IC50 (SW1088) greater than 2000 µM, an IC50 (CAL-54) greater than 2000 µM and an IC50 (SW1417) greater than 2000 µM. For the same compound, the IC50 (GMS-10) was 663000 nM, the IC50 (IGR-1) was greater than 2000 µM and the IC50 (DU-145) was greater than 2000 µM. For the same compound, the IC50 (TCC-SUP) was 1030 µM, the IC50 (HN) was 252000 nM and the IC50 (CAL-33) was 1310 µM.

With `CC[C@@]1(O)C(=O)OCc2c1cc1n(c2=O)Cc2cc3ccccc3nc2-1` [CAMPTOTHECIN] the IC50 (SK-MEL-30) was greater than 0.1 µM, the IC50 (MEL-JUSO) was 0.0356 µM and the IC50 (HCC1419) was greater than 0.1 µM. For the same compound, the IC50 (SW-620) was 0.00408 µM, the IC50 (RD) was 0.0157 µM and the IC50 (NCI-H2405) was 0.0585 µM. For the same compound, the IC50 (CAL-62) was 0.000984 µM, the IC50 (J82) was 0.00472 µM and the IC50 (ME-180) was 2.69 nM. For the same compound, the IC50 (DOK) was 18.9 nM, the IC50 (NCI-H1792) was 0.0401 µM and the IC50 (NCI-H596) was greater than 0.1 µM. The IC50 (NCI-H2291) was greater than 0.1 µM, the IC50 (BT-549) was 17.6 nM and the IC50 (RT-112) was 0.0149 µM. For the same compound, the IC50 (KOSC-2) was 4.39 nM, the IC50 (CAKI-1) was 0.00535 µM and the IC50 (G-401) was 0.0192 µM. For the same compound, the IC50 (NCI-H2030) was 0.0485 µM, the IC50 (SK-HEP1) was 7.25 nM and the IC50 (HT-29) was 0.0855 µM. For the same compound, the IC50 (HuCCT-1) was 0.0732 µM, the IC50 (C-33-A) was 0.00648 µM and the IC50 (MIA PaCa-2) was 0.00276 µM. For the same compound, the IC50 (SW1573) was 0.00235 µM, the IC50 (NCI-H650) was 0.055 µM and the IC50 (LU-135) was 0.0282 µM. For the same compound, the IC50 (C3A) was 0.0569 µM, the IC50 (A 172) was 0.0128 µM and the IC50 (HOP-92) was 0.00879 µM. The IC50 (HTC-C3) was 31.5 nM, the IC50 (SW1088) was 0.0278 µM and the IC50 (CAL-54) was 0.00476 µM. It also gave an IC50 (SW1417) of 0.0527 µM, an IC50 (GMS-10) of 7.31 nM and an IC50 (DU-145) greater than 0.1 µM. It also gave an IC50 (TCC-SUP) of 0.039 µM, an IC50 (HN) of 1.4 nM and an IC50 (CAL-33) of 0.006 µM.

For `Cn1c(=O)n(-c2ccc(C(C)(C)C#N)cc2)c2c3cc(-c4cnc5ccccc5c4)ccc3ncc21` [DACTOLISIB], the IC50 (SK-MEL-30) was 0.196 µM, the IC50 (HT55) was 1.31 µM and the IC50 (HCC1419) was 0.0387 µM. It also gave an IC50 (SW-620) of 0.0504 µM, an IC50 (RD) of 0.0759 µM and an IC50 (NCI-H2405) of 0.0549 µM. The IC50 (CAL-62) was 0.0369 µM, the IC50 (J82) was 0.185 µM and the IC50 (ME-180) was 22.4 nM. The IC50 (DOK) was 56 nM, the IC50 (NCI-H1792) was 0.0662 µM and the IC50 (NCI-H596) was 0.228 µM. The IC50 (NCI-H2291) was 0.598 µM, the IC50 (BT-549) was 119 nM and the IC50 (RT-112) was 0.0197 µM. The IC50 (KOSC-2) was 70 nM, the IC50 (CAKI-1) was 0.0364 µM and the IC50 (G-401) was 0.0408 µM. The IC50 (NCI-H2030) was 0.0215 µM, the IC50 (NCI-H1755) was 0.139 µM and the IC50 (SK-HEP1) was 46 nM. It also gave an IC50 (HT-29) greater than 2 µM, an IC50 (HuCCT-1) of 0.0908 µM and an IC50 (C-33-A) of 0.136 µM. For the same compound, the IC50 (HCC2157) was 128 nM, the IC50 (MIA PaCa-2) was 0.0845 µM and the IC50 (SW1573) was 0.109 µM. The IC50 (SNU-387) was 0.104 µM, the IC50 (SNU-423) was 0.068 µM and the IC50 (NCI-H650) was 0.0941 µM. The IC50 (LU-135) was greater than 2 µM, the IC50 (C3A) was greater than 2 µM and the IC50 (MDA-MB-415) was 0.177 µM. The IC50 (HOP-92) was 0.0265 µM, the IC50 (HTC-C3) was 117 nM and the IC50 (SW1088) was 0.0283 µM. For the same compound, the IC50 (CAL-54) was 0.238 µM, the IC50 (SW1417) was greater than 2 µM and the IC50 (GMS-10) was 174 nM. The IC50 (IGR-1) was 0.0461 µM, the IC50 (DU-145) was greater than 2 µM and the IC50 (TCC-SUP) was 0.0645 µM. It also gave an IC50 (HN) of 5.96 nM and an IC50 (CAL-33) of 0.0851 µM.

With `CC(=O)c1c(C)c2cnc(Nc3ccc(N4CCNCC4)cn3)nc2n(C2CCCC2)c1=O` [PALBOCICLIB] the IC50 (SK-MEL-30) was greater than 4 µM, the IC50 (HT55) was greater than 4 µM and the IC50 (HCC1419) was greater than 4 µM. The IC50 (SW-620) was 2.26 µM, the IC50 (RD) was greater than 4 µM and the IC50 (NCI-H2405) was greater than 4 µM. For the same compound, the IC50 (CAL-62) was 1.61 µM, the IC50 (ME-180) was greater than 4000 nM and the IC50 (DOK) was greater than 4000 nM. The IC50 (NCI-H1792) was greater than 4 µM, the IC50 (NCI-H596) was greater than 4 µM and the IC50 (NCI-H2291) was greater than 4 µM. It also gave an IC50 (BT-549) greater than 4000 nM, an IC50 (RT-112) of 0.321 µM and an IC50 (KOSC-2) of 467 nM. It also gave an IC50 (CAKI-1) greater than 4 µM, an IC50 (G-401) of 1.92 µM and an IC50 (NCI-H1755) greater than 4 µM. For the same compound, the IC50 (SK-HEP1) was 2590 nM, the IC50 (HT-29) was greater than 4 µM and the IC50 (HuCCT-1) was greater than 4 µM. For the same compound, the IC50 (C-33-A) was greater than 4 µM, the IC50 (HCC2157) was greater than 4000 nM and the IC50 (MIA PaCa-2) was 2.36 µM. The IC50 (SW1573) was greater than 4 µM, the IC50 (SNU-387) was greater than 4 µM and the IC50 (SNU-423) was greater than 4 µM. The IC50 (NCI-H650) was greater than 4 µM, the IC50 (LU-135) was greater than 4 µM and the IC50 (C3A) was greater than 4 µM. The IC50 (MDA-MB-415) was greater than 4 µM, the IC50 (HOP-92) was 3.5 µM and the IC50 (HTC-C3) was 433 nM. For the same compound, the IC50 (SW1088) was 3.47 µM, the IC50 (CAL-54) was 2.2 µM and the IC50 (SW1417) was greater than 4 µM. The IC50 (GMS-10) was greater than 4000 nM, the IC50 (IGR-1) was greater than 4 µM and the IC50 (DU-145) was 3.46 µM. For the same compound, the IC50 (TCC-SUP) was greater than 4 µM, the IC50 (HN) was 1540 nM and the IC50 (CAL-33) was greater than 4 µM.

From ChEMBL document CHEMBL1201861, “Genomics of Drug Sensitity in Cancer screening data, Wellcome Trust Sanger Institute”
